Experimental data taken from ChEMBL document CHEMBL1201862, “PubChem BioAssay data set” (2004).
Calls of active or inactive are those of the source.

Legend:
[1] = molecular target: T1, Rac GTPase-activating protein 1 (Homo sapiens, UniProt Q9H0H5); assay: blockers of MgcRacGAP-driven Rac1 GTP hydrolysis – biochemical, ADP Hunter fluorescence, primary and confirmatory, confirmation (AID 624330); assay type: functional
T1 sequence (Q9H0H5 whole entry): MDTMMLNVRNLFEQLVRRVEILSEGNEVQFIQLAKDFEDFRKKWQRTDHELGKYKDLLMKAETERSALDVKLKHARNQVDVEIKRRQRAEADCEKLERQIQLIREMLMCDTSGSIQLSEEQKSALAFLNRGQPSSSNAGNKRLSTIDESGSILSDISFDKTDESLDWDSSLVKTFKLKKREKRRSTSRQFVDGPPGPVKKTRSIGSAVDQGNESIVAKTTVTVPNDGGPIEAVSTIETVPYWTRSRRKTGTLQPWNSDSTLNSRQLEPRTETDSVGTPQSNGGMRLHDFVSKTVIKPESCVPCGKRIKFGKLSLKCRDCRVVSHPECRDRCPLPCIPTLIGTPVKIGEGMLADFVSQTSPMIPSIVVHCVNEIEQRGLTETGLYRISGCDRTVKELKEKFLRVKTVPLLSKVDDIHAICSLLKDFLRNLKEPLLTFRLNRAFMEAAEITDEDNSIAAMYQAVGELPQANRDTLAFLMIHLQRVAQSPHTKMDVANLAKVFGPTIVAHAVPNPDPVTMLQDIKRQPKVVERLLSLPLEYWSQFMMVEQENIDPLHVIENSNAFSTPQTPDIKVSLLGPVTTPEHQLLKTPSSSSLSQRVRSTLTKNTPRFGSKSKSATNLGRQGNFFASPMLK

[2] = MIN6 cell viability loss – mouse insulinoma, cytotoxicity control, dose response (AID 2122); assay type: functional;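 also: confirmatory high-throughput counterscreen run to flag cytotoxic compounds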
HEK293 [3] = assay: cells; details: Homo sapiens
[4] = decrease of insulin promoter-GFP reporter – imaging, high-content screening, mouse beta cells (AID 1628); assay type: functional; details: MIN6
HEK293 [5] = assay: cells; details: Homo sapiens; remark: listed apart in the source
[6] = molecular target: Dual specificity protein kinase CLK1 (Homo sapiens, UniProt P49759); assay: inhibition of human CLK1 activity – biochemical, cherry-picked samples, selectivity assay for Dyrk1A inhibitor project, dose response (AID 588811)
Dual specificity protein kinase CLK1, sequence (P49759 whole entry): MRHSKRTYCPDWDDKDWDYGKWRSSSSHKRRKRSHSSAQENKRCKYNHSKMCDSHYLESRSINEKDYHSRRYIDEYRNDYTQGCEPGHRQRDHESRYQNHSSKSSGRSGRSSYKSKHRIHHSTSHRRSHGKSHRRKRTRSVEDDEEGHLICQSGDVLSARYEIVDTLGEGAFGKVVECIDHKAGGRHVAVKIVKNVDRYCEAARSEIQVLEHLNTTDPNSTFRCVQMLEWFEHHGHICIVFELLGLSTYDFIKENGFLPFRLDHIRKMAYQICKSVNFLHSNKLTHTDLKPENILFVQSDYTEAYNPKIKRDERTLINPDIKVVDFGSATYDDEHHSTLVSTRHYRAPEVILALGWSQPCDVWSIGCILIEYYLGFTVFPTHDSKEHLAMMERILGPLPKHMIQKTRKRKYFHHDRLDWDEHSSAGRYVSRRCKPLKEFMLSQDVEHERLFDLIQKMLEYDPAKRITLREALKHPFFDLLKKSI

[7] = molecular target: T2, Lysine-specific demethylase 4C (Homo sapiens, UniProt Q9H3R0); assay: inhibition of JMJD2C H3K9me3 demethylation – biochemical, DELFIA europium, cherry-picked samples, dose response (AID 488835); assay type: functional
T2 sequence (Q9H3R0 whole entry): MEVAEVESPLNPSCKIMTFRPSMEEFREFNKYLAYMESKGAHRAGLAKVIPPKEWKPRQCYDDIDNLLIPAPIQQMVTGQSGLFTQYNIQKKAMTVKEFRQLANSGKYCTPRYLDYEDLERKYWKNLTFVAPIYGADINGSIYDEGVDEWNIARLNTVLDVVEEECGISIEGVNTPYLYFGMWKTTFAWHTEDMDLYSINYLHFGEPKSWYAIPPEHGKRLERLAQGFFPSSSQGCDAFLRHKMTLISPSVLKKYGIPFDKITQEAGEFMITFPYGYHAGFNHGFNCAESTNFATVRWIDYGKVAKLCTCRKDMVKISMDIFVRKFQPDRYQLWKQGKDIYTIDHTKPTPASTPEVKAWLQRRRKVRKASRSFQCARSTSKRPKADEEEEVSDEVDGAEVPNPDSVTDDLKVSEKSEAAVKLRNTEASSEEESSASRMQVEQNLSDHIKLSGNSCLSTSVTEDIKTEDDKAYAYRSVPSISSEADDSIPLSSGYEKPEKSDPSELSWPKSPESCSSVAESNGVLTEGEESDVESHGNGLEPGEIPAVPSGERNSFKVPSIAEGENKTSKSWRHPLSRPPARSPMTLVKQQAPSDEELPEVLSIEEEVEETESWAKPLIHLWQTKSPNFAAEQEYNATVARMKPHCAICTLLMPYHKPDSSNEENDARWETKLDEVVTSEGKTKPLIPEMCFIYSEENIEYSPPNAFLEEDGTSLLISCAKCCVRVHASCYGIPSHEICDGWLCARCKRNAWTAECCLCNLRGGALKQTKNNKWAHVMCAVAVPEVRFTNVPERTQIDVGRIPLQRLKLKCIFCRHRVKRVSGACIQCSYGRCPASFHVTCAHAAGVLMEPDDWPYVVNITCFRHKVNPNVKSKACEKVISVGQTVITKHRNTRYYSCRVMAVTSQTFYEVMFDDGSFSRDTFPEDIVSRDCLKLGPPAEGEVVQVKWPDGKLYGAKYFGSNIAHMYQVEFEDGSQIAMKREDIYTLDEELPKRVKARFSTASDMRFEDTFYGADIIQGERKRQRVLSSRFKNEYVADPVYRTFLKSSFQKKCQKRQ

Hexokinase HKDC1 [8] = molecular target: T3, Hexokinase HKDC1 (Homo sapiens, UniProt Q2TB90); assay: SAR analysis of small molecule inhibitors of hexokinase domain containing I (HKDC1). [Related pubchem assays (depositor defined):AID493160, AID493190]; assay type: functional
T3 sequence (Q2TB90 whole entry): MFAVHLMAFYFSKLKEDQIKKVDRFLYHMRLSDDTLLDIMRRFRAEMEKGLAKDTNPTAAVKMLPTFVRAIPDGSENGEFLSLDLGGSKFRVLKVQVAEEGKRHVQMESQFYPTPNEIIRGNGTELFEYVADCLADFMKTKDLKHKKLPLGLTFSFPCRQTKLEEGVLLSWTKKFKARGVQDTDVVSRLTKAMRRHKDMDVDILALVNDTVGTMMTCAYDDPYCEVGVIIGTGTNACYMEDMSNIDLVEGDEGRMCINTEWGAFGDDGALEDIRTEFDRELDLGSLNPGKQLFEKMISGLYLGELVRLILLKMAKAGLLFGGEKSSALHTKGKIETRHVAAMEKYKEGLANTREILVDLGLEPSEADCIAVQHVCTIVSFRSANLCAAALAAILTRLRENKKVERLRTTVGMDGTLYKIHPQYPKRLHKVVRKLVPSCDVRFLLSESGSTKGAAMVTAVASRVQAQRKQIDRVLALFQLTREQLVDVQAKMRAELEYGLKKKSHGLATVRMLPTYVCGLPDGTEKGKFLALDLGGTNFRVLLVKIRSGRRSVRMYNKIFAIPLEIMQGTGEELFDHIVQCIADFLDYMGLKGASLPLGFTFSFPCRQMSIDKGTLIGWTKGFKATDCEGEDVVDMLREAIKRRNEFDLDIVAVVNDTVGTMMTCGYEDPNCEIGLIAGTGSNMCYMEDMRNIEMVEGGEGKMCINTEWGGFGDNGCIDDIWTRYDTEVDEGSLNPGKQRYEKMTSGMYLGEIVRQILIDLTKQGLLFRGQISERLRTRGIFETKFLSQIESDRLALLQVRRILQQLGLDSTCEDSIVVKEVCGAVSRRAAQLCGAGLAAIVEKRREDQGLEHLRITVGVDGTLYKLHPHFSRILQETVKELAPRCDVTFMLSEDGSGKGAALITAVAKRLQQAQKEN

[9] = molecular target: Induced myeloid leukemia cell differentiation protein Mcl-1 (Homo sapiens, UniProt Q07820); assay type: functional
Induced myeloid leukemia cell differentiation protein Mcl-1, sequence (Q07820 whole entry): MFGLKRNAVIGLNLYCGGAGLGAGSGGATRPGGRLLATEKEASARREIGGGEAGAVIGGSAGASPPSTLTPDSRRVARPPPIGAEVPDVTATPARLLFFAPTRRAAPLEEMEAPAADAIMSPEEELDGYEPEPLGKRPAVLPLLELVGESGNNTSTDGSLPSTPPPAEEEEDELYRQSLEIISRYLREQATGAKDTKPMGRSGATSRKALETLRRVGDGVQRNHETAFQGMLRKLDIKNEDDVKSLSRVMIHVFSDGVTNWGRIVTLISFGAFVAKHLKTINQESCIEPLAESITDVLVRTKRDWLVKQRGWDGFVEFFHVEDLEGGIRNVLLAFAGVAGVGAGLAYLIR

INS1 = assay: INS-1E survival protection against cytokine death – cell-based, luminescence, retest, dose response (AID 449756); assay type: functional; details: Rattus norvegicus;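 also: cell death triggered by IL-1 beta plus TNF-alpha plus IFN-gamma mixture; protective hits raise ATP signal compared with cytokine alone wells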
Hexokinase-1 = Hexokinase-1 (Homo sapiens, UniProt P19367); assay: SAR analysis of small molecule inhibitors of hexokinase domain containing I (HKDC1) in the hexokinase 1 selectivity assay. [Related pubchem assays (depositor defined):AID493160, AID493190]; assay type: functional
Hexokinase HKDC1 [10] = molecular target: T3, Hexokinase HKDC1; assay: inhibition of HKDC1 glucose phosphorylation – biochemical, W721R variant, dose response (AID 504729); assay type: functional
[11] = molecular target: Eukaryotic translation initiation factor 4E (Mus musculus, UniProt P63073); assay: blockers of eIF4G binding by eIF4E – biochemical, TR-FRET, dose response (AID 855); assay type: functional;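 also: potency for disrupting eIF4E binding to eIF4GI seen as loss of FRET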
Eukaryotic translation initiation factor 4E, sequence (P63073 whole entry): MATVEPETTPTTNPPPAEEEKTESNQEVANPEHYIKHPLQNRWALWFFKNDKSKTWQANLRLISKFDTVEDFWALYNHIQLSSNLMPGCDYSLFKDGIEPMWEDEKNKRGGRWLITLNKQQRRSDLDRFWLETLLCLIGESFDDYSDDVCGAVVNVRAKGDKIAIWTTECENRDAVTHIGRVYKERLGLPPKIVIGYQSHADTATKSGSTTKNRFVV

Vero = assay: viability of Vero cells under compound – cytotoxicity control for flavivirus capping enzyme inhibitors (AID 588742); assay type: functional; details: Chlorocebus sabaeus
Genome polyprotein = Genome polyprotein (dengue virus type 2, UniProt P29990); assay: flavivirus cap methylation enzyme inhibition – biochemical, confirmation dose response, primary screen (AID 588689); assay type: functional
Genome polyprotein, sequence (P29990 2492-3391 limits assumed): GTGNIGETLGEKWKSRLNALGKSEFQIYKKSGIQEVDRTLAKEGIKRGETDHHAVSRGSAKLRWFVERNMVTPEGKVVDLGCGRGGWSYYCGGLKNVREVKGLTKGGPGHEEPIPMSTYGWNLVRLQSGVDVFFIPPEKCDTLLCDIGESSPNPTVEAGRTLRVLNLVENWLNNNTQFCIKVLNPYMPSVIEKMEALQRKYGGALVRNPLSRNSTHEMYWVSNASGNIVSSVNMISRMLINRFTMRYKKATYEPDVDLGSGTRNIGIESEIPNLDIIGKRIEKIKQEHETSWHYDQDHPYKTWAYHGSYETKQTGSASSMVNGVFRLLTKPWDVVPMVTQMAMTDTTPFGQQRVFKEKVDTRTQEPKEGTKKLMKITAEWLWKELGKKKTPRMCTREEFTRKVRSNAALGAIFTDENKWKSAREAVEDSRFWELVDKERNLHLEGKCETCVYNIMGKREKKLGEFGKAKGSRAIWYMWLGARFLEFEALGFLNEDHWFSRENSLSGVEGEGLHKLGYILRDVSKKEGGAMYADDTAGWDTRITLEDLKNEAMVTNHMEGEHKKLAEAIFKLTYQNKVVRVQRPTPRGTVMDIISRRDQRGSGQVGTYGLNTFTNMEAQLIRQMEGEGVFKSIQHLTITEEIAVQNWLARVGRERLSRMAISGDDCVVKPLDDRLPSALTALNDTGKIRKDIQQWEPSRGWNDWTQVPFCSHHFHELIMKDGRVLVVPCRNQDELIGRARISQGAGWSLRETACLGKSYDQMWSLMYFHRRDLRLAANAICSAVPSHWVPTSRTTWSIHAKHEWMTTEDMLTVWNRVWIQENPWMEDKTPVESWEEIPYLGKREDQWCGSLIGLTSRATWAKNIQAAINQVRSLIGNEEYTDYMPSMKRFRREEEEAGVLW

A-375 = assay: MITF: Counter assay: A375 proliferation Measured in Cell-Based System Using Plate Reader - 2084-03_Inhibitor_Dose_DryPowder_Activity. [Related pubchem assays (depositor defined):AID488944]; assay type: functional; details: Homo sapiens
[12] = molecular target: Heat shock protein HSP 90-alpha (Homo sapiens, UniProt P07900); assay type: functional, organism-based
Large T antigen = Large T antigen (Simian virus 40, UniProt P03070); assay type: functional, Betapolyomavirus macacae;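 also: Confirmatory-stage PubChem screen for compounds that inhibit SV40 T antigen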
Large T antigen, sequence (P03070 whole entry): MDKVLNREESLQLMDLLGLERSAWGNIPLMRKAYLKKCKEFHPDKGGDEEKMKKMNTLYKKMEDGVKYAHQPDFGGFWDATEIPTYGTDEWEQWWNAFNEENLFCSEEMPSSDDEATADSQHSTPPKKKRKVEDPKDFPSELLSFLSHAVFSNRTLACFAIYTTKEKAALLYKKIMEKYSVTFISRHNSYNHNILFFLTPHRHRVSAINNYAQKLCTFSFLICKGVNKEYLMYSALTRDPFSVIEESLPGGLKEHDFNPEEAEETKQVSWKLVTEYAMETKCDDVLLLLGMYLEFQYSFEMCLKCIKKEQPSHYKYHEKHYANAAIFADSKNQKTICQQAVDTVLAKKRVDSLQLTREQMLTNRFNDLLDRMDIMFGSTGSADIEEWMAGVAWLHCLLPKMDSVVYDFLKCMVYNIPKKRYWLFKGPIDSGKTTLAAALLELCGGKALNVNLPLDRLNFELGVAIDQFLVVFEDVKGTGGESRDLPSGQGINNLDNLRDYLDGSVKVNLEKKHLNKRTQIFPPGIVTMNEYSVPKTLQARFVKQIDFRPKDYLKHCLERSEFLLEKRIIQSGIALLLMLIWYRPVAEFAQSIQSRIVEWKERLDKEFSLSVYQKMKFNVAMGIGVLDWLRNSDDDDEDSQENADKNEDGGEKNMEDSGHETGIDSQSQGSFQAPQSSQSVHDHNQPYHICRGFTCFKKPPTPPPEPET

[13] = molecular target: T4, Microphthalmia-associated transcription factor (Homo sapiens, UniProt O75030); assay: reducers of TRPM1 reporter luminescence, concentration series – cell-based, SK-MEL-5, cherry-picked, set 3, MITF inhibitor project, dose response (AID 493073); assay type: functional;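 also: SK-MEL-5 melanoma cells with luciferase driven by the MITF target TRPM1 promoter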
T4 sequence (O75030 whole entry): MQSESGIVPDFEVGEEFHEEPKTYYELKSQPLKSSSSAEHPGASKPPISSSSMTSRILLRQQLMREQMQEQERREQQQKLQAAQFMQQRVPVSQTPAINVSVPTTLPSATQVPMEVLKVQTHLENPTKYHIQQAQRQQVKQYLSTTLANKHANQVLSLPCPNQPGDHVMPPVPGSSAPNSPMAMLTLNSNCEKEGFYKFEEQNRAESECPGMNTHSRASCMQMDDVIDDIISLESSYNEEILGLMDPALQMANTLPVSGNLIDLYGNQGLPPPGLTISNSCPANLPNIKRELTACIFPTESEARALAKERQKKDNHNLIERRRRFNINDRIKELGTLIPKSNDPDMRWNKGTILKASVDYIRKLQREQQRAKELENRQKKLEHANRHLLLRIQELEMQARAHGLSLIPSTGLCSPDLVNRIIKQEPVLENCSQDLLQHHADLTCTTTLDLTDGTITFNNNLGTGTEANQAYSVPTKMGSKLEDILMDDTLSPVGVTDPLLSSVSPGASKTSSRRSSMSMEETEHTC

[14] = molecular target: Beta-2 adrenergic receptor (Homo sapiens, UniProt P07550); assay: ADRB2 activation measured by internalization – cell-based, FAP fluorogen, flow cytometry, cherry pick 1, dose response (AID 588763); assay type: functional
Beta-2 adrenergic receptor, sequence (P07550 whole entry): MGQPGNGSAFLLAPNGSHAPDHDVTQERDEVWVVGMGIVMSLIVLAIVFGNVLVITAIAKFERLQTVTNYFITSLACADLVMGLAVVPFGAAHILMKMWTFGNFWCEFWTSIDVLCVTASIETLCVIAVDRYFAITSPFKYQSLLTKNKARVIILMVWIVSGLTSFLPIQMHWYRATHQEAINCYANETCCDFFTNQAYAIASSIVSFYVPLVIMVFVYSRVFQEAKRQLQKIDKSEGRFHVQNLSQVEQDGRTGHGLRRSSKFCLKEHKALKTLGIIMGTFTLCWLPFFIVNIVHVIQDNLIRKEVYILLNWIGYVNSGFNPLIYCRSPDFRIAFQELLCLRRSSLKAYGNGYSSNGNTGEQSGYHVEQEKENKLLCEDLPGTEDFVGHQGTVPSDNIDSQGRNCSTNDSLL

Beta-galactosidase = Beta-galactosidase (Escherichia coli, UniProt Q8VNN2); assay: PubChem AID 485352; assay type: functional
Beta-galactosidase, sequence (Q8VNN2 whole entry): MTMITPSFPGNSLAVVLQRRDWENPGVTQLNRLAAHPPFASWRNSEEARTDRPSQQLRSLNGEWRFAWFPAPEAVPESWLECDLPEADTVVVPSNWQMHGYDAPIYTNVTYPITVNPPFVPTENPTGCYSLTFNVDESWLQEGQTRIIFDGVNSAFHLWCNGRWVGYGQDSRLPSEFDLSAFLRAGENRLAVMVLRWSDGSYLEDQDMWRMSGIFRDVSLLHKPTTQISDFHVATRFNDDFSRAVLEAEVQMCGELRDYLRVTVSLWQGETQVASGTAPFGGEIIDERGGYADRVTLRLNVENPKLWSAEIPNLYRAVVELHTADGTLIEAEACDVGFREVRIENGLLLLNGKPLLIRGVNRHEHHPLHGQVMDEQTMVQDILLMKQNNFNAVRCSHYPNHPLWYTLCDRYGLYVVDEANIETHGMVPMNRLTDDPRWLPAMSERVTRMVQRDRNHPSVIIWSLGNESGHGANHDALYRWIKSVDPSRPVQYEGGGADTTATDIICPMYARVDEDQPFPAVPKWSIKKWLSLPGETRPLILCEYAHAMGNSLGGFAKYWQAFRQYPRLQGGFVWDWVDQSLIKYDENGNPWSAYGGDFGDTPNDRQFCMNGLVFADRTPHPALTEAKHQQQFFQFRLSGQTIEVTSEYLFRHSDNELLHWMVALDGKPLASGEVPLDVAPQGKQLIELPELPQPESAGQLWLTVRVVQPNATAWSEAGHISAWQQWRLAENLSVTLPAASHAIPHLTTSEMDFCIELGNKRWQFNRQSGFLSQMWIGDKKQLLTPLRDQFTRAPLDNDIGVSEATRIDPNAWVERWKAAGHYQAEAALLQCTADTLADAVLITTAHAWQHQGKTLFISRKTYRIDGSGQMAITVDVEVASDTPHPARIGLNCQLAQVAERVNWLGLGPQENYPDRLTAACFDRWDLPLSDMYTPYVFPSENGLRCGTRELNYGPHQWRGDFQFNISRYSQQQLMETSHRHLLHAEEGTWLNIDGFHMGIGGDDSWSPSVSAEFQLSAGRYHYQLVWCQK

[15] = molecular target: Type-1 angiotensin II receptor (Homo sapiens, UniProt P30556); assay: antagonism of angiotensin II type 1 receptor – cell-based, uHTS hits, selectivity assay for APJ receptor antagonist project, dose response (AID 463214); assay type: functional;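 also: antagonist potency against angiotensin II stimulated AT1 response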
Type-1 angiotensin II receptor, sequence (P30556 whole entry): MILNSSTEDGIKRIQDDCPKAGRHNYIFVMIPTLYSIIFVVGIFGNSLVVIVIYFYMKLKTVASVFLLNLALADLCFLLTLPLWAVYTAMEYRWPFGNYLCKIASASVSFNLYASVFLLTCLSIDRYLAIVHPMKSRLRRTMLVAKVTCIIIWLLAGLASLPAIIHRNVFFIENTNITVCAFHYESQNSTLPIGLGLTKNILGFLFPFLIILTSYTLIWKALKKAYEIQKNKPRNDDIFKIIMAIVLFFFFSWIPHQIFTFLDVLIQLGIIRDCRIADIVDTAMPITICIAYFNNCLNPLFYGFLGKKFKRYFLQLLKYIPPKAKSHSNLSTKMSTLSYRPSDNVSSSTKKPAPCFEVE

[16] = molecular target: Dual specificity tyrosine-phosphorylation-regulated kinase 1A (Rattus norvegicus, UniProt Q63470); assay type: biochemical, Homo sapiens
H4 = assay: Luminescence Cell-Based Dose Response HTS to Identify Activators of 5'UTR Stem-Loop Driven Prion Protein mRNA Translation in H4 Neuroglioblastoma Cells. [Related pubchem assays: 1829 (Project Summary), 1814 (Primary HTS)]; assay type: functional; details: Homo sapiens
[17] = molecular target: COUP transcription factor 2 (Homo sapiens, UniProt P24468); assay: Luminescence-based cell-based high throughput dose response assay to identify inhibitors of COUP-TFII (NR2F2).; assay type: functional;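 also: HEK293 cells transiently cotransfected with COUP-TFII expression vector and reporter; luciferase reporter luminescence driven by COUP-TFII from the pX2-168 reporter plasmid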
COUP transcription factor 2, sequence (P24468 whole entry): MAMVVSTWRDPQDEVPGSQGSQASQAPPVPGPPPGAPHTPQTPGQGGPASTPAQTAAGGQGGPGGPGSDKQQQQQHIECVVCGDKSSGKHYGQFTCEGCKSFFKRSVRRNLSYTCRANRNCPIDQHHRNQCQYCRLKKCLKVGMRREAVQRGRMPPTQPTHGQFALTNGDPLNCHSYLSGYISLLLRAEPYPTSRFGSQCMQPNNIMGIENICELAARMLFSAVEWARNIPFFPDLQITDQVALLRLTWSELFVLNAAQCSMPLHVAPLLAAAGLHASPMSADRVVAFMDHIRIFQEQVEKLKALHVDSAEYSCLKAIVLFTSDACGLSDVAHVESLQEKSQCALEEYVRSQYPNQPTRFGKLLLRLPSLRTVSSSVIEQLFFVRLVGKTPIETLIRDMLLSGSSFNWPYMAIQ

Jurkat = assay: blockers of NF-kB activation in T cells – Jurkat, luciferase reporter, luminescence, B- and T-cell, dose response (AID 489004); assay type: functional, cell-based; details: Homo sapiens;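 also: NF-kB luciferase reporter Jurkat cells stimulated with PMA plus ionomycin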
[18] = HEK-293T viability loss, compound-treated – cell-based, uHTS hits, cytotoxicity control for B/T-cell NF-kB inhibitor project, dose response (AID 489019); assay type: functional;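 also: IC50 reflects cytotoxicity as loss of cell viability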
HeLa = assay: ATP-based viability loss in HeLa cells – cell-based, CellTiter-Glo luminescence, cherry-pick samples, cytotoxicity control for MITF activator project, dose response (AID 540259); assay type: functional; details: Homo sapiens
[19] = Luminescence Cell-Based Dose Response HTS to Identify Activators of Luciferase Translation or Activity in H4 […] Cells. [Related pubchem assays: 1829 (Project Summary), 1814 (Primary HTS)]; assay type: functional
[20] = Luminescence Cell-Based Dose Confirmation HTS to Identify Activators of 5'UTR Stem-Loop Driven Alpha-Synuclein mRNA Translation in H4 Neuroglioblastoma Cells. [Related pubchem assays: 1829 (Project Summary), 1814 (Primary HTS)]; assay type: functional

Nc1ccccc1Nc1cccc(C(F)(F)F)c1
IC50 [1]: 89 µM (active) | IC50 [2]: 5.09 µM (active) | EC50 (HEK293 [3]): > 59.6 µM (inactive) | IC50 [4]: 4.45 µM (active) | EC50 (HEK293 [5]): > 59.6 µM (inactive)

Cc1nc(CNc2ncnc3ccc(-c4ccc5c(c4)OCO5)cc23)cs1
AC50 [6]: 0.0354 µM (active)

Cc1ccc(C)c(S(=O)(=O)Nc2cc(SCC(=O)O)c(O)c3ccccc23)c1
AC50 [7]: 4.94 µM (active) | IC50 (Hexokinase HKDC1 [8]): 10.2 µM (active) | IC50 [9]: 13.8 µM (active) | AC50 (INS1): 4.28 µM (active) | IC50 (Hexokinase-1): > 80 µM (inactive) | IC50 (Hexokinase HKDC1 [10]): 2.96 µM (active) | IC50 [11]: > 64 µM (inactive)

O=C(O)/C=C/C(=O)c1ccc2c(c1)CCc1ccccc1-2
CC50 (Vero): 17.2 µM (active) | IC50 (Genome polyprotein): 22.9 µM (active) | AC50 (A-375): 35 µM (active) | AC50 [12]: 16.6 µM (active) | IC50 (Large T antigen): 34.5 µM (active) | AC50 [13]: 15 µM (active)

Cc1ccc(OCc2nnc(SCc3nc4ccccc4[nH]3)n2Cc2ccco2)cc1
EC50 [14]: 1.08 µM (active)

O=C(CCC(=O)OCC(=O)c1cccc([N+](=O)[O-])c1)NC1CCCCC1
EC50 (Beta-galactosidase): > 40 µM (inactive) | IC50 [15]: 25.2 µM (not active)

O=C(Nc1ccc2c[nH]nc2c1)c1ccccc1F
AC50 [16]: 20.8 µM (active) | EC50 (H4): > 120 µM (not active)

CCCCCCn1ccc(=N)cc1
IC50 [17]: 15.8 µM (inactive) | AC50 (INS1): 3.13 µM (active) | IC50 (Jurkat): > 80 µM (inactive) | IC50 [18]: 13 µM (active)

COC(=O)c1ccc(N2CCN(c3ccccc3)CC2)nc1
AC50 (HeLa): 53.8 µM (active) | EC50 (H4): 0.114 µM (active) | EC50 [19]: > 120 µM (not active) | EC50 [20]: > 120 µM (not active)
